Experimental data taken from article PMC5218480 (PLoS ONE, 2017).

System: MV-4-11 cells
Test: Gene expression microarray analysis (Affymetrix PrimeView) and GSEA
Type: cell-based, human
Set-up: RFU PODN (11730768_x_at) / Fold change /veh PODN (11730768_x_at) / RFU LINC00158 (11744669_a_at) / Fold change /veh LINC00158 (11744669_a_at) / RFU DUSP10 (11751237_a_at) / Fold change /veh DUSP10 (11751237_a_at) / RFU ID3 (11757404_x_at) / Fold change /veh ID3 (11757404_x_at) / RFU PLEKHG5 (11737974_s_at) / Fold change /veh PLEKHG5 (11737974_s_at) / RFU LRRC4B (11730491_at) / Fold change /veh LRRC4B (11730491_at) / RFU GIMAP4 (11747438_a_at) / Fold change /veh GIMAP4 (11747438_a_at) / RFU KRT8 (11758183_x_at) / Fold change /veh KRT8 (11758183_x_at) / RFU CNN1 (11734310_a_at) / Fold change /veh CNN1 (11734310_a_at) / RFU VPS37D (11726825_at) / Fold change /veh VPS37D (11726825_at) / RFU C10orf10 (11716522_x_at) / Fold change /veh C10orf10 (11716522_x_at) / RFU KIR2DL2 /// KIR2DL4 /// KIR2DL5A /// KIR2DL5B /// KIR2DS1 /// KIR2DS2 /// KIR2DS3 /// KIR2DS4 /// KIR3DL3 /// KIR3DL3 /// KIR3DS1 (11738374_at) / Fold change /veh KIR2DL2 /// KIR2DL4 /// KIR2DL5A /// KIR2DL5B /// KIR2DS1 /// KIR2DS2 /// KIR2DS3 /// KIR2DS4 /// KIR3DL3 /// KIR3DL3 /// KIR3DS1 (11738374_at) / RFU C1QL1 (11718748_at) / Fold change /veh C1QL1 (11718748_at) / RFU TMPRSS4 (11747572_a_at) / Fold change /veh TMPRSS4 (11747572_a_at) / RFU HAMP (11756126_x_at) / Fold change /veh HAMP (11756126_x_at) / RFU RNFT2 (11725882_a_at) / Fold change /veh RNFT2 (11725882_a_at) / RFU NR4A2 (11747474_a_at) / Fold change /veh NR4A2 (11747474_a_at) / RFU ABCC12 (11746883_a_at) / Fold change /veh ABCC12 (11746883_a_at) / RFU TMEM136 (11760407_x_at) / Fold change /veh TMEM136 (11760407_x_at) / RFU CLDN22 /// WWC2 (11732394_at) / Fold change /veh CLDN22 /// WWC2 (11732394_at) / RFU HLA-DPB1 (11760878_x_at) / Fold change /veh HLA-DPB1 (11760878_x_at) / RFU SPINT1 (11716480_a_at) / Fold change /veh SPINT1 (11716480_a_at) / RFU GAP43 (11754022_s_at) / Fold change /veh GAP43 (11754022_s_at) / RFU A4GNT (11735810_at) / Fold change /veh A4GNT (11735810_at) / RFU PRB3 (11715151_x_at) / Fold change /veh PRB3 (11715151_x_at) / RFU TUBB4B (11761932_at) / Fold change /veh TUBB4B (11761932_at) / RFU CAPN14 (11732068_a_at) / Fold change /veh CAPN14 (11732068_a_at) / RFU TMCC2 (11721928_a_at) / Fold change /veh TMCC2 (11721928_a_at) / RFU IRGQ (11745062_a_at) / Fold change /veh IRGQ (11745062_a_at) / RFU FAM174B (11720279_a_at) / Fold change /veh FAM174B (11720279_a_at) / RFU TMPRSS4 (11748680_a_at) / Fold change /veh TMPRSS4 (11748680_a_at) / RFU FAM212B (11763350_a_at) / Fold change /veh FAM212B (11763350_a_at) / RFU PLEKHG5 (11743358_a_at) / Fold change /veh PLEKHG5 (11743358_a_at) / RFU ZSCAN30 (11745921_a_at) / Fold change /veh ZSCAN30 (11745921_a_at) / RFU CMKLR1 (11741424_a_at) / Fold change /veh CMKLR1 (11741424_a_at) / RFU LOC101060620 /// MAPK8IP1 (11723275_at) / Fold change /veh LOC101060620 /// MAPK8IP1 (11723275_at) / RFU SPTSSB (11747773_x_at) / Fold change /veh SPTSSB (11747773_x_at) / RFU PRSS12 (11739890_at) / Fold change /veh PRSS12 (11739890_at) / RFU BIN1 (11741810_x_at) / Fold change /veh BIN1 (11741810_x_at) / RFU WNT11 (11732464_a_at) / Fold change /veh WNT11 (11732464_a_at) / RFU C10orf10 (11716521_a_at) / Fold change /veh C10orf10 (11716521_a_at) / RFU C5orf56 (11738089_at) / Fold change /veh C5orf56 (11738089_at) / RFU CYB561 (11721691_x_at) / Fold change /veh CYB561 (11721691_x_at) / RFU ANKRD19P (11752326_a_at) / Fold change /veh ANKRD19P (11752326_a_at) / RFU OR2T12 /// OR2T33 /// OR2T8 (11738714_s_at) / Fold change /veh OR2T12 /// OR2T33 /// OR2T8 (11738714_s_at) / RFU VCAN (11748164_a_at) / Fold change /veh VCAN (11748164_a_at) / RFU JSRP1 (11732532_at) / Fold change /veh JSRP1 (11732532_at) / RFU KRTAP10-11 (11738290_x_at) / Fold change /veh KRTAP10-11 (11738290_x_at) / RFU MYO3A (11730013_a_at) / Fold change /veh MYO3A (11730013_a_at) / RFU EBF3 (11725865_a_at) / Fold change /veh EBF3 (11725865_a_at) / RFU CAMK2N1 (11719241_x_at) / Fold change /veh CAMK2N1 (11719241_x_at) / RFU C5orf56 (11738088_a_at) / Fold change /veh C5orf56 (11738088_a_at) / RFU OLFML3 (11715873_a_at) / Fold change /veh OLFML3 (11715873_a_at) / RFU LOC100653217 /// NTM (11731650_a_at) / Fold change /veh LOC100653217 /// NTM (11731650_a_at) / RFU MAPK11 (11762145_a_at) / Fold change /veh MAPK11 (11762145_a_at) / RFU FIZ1 (11724087_x_at) / Fold change /veh FIZ1 (11724087_x_at) / RFU OASL (11726364_x_at) / Fold change /veh OASL (11726364_x_at) / RFU SOX15 (11748057_x_at) / Fold change /veh SOX15 (11748057_x_at) / RFU CD79A (11719716_a_at) / Fold change /veh CD79A (11719716_a_at) / RFU HIST1H1D (11736915_at) / Fold change /veh HIST1H1D (11736915_at) / RFU CASKIN2 (11723855_a_at) / Fold change /veh CASKIN2 (11723855_a_at) / RFU LOC730098 (11760151_x_at) / Fold change /veh LOC730098 (11760151_x_at) / RFU OR4N2 (11742367_at) / Fold change /veh OR4N2 (11742367_at) / RFU PRRT2 (11749266_a_at) / Fold change /veh PRRT2 (11749266_a_at) / RFU SNX32 (11753110_a_at) / Fold change /veh SNX32 (11753110_a_at) / RFU CDHR5 (11726645_a_at) / Fold change /veh CDHR5 (11726645_a_at) / RFU RCAN1 (11760418_a_at) / Fold change /veh RCAN1 (11760418_a_at) / RFU FAM167A (11723789_a_at) / Fold change /veh FAM167A (11723789_a_at) / RFU FAM26E (11764081_at) / Fold change /veh FAM26E (11764081_at) / RFU ISYNA1 (11749810_s_at) / Fold change /veh ISYNA1 (11749810_s_at) / RFU ACY1 (11761880_at) / Fold change /veh ACY1 (11761880_at) / RFU 11764098_at / Fold change /veh 11764098_at / RFU SAMD14 (11745864_x_at) / Fold change /veh SAMD14 (11745864_x_at) / RFU NPB (11741838_a_at) / Fold change /veh NPB (11741838_a_at) / RFU TMPRSS6 (11731388_a_at) / Fold change /veh TMPRSS6 (11731388_a_at) / RFU KRTAP10-2 (11738614_at) / Fold change /veh KRTAP10-2 (11738614_at) / RFU ARHGAP8 /// PRR5-ARHGAP8 (11727945_x_at) / Fold change /veh ARHGAP8 /// PRR5-ARHGAP8 (11727945_x_at) / RFU KRTAP5-7 /// NADSYN1 (11734609_at) / Fold change /veh KRTAP5-7 /// NADSYN1 (11734609_at) / RFU RASL12 (11751679_a_at) / Fold change /veh RASL12 (11751679_a_at) / RFU CDKN2B (11736163_a_at) / Fold change /veh CDKN2B (11736163_a_at) / RFU PRF1 (11729649_at) / Fold change /veh PRF1 (11729649_at) / RFU, ZNF638 /// ZNF638-IT1 / Fold change vs veh, ZNF638 /// ZNF638-IT1 / RFU, PANK3 / Fold change vs veh, PANK3 / RFU, SH3YL1 / Fold change vs veh, SH3YL1 / RFU, ZEB2 / Fold change vs veh, ZEB2 / RFU, NRIP1 / Fold change vs veh, NRIP1 / RFU, PTTG1IP / Fold change vs veh, PTTG1IP / RFU, CAPN2 / Fold change vs veh, CAPN2 / RFU, MED14 / Fold change vs veh, MED14 / RFU, SNORA58 / Fold change vs veh, SNORA58 / RFU, C1orf63 / Fold change vs veh, C1orf63 / RFU, LRRFIP1 / Fold change vs veh, LRRFIP1 / RFU, NDUFAF7 / Fold change vs veh, NDUFAF7 / RFU, SLC12A2 / Fold change vs veh, SLC12A2 / RFU, IBTK / Fold change vs veh, IBTK / RFU, ESF1 / Fold change vs veh, ESF1 / Fold change vs veh, TMEM50B / RFU, TAOK1 / Fold change vs veh, TAOK1 / RFU, ACBD3 / Fold change vs veh, ACBD3 / RFU, TMA16 / Fold change vs veh, TMA16 / RFU, RWDD3 / Fold change vs veh, RWDD3 / RFU, BCAT1 / Fold change vs veh, BCAT1 / RFU, EDEM3 / Fold change vs veh, EDEM3 / RFU, TMEM33 / Fold change vs veh, TMEM33 / RFU, WDR75 / Fold change vs veh, WDR75 / RFU, AHCTF1 / Fold change vs veh, AHCTF1 / RFU, TFRC / Fold change vs veh, TFRC / RFU, ZDHHC17 / Fold change vs veh, ZDHHC17 / RFU, NOM1 / Fold change vs veh, NOM1 / RFU, ARL8B / Fold change vs veh, ARL8B / RFU, ZBTB11 / Fold change vs veh, ZBTB11 / RFU, TAMM41 / Fold change vs veh, TAMM41 / RFU, KIAA1704 /// LOC100996395 / Fold change vs veh, KIAA1704 /// LOC100996395 / RFU, ING1 / Fold change vs veh, ING1 / RFU, TRMT61B / Fold change vs veh, TRMT61B / RFU, FUBP3 / Fold change vs veh, FUBP3 / RFU, TP53 / Fold change vs veh, TP53 / RFU, TNKS2 / Fold change vs veh, TNKS2 / RFU, ZFP14 / Fold change vs veh, ZFP14 / RFU, ACTR2 / Fold change vs veh, ACTR2 / RFU, PPP3R1 / Fold change vs veh, PPP3R1 / RFU, PIK3R1 / Fold change vs veh, PIK3R1 / RFU, HNRNPA1 / Fold change vs veh, HNRNPA1 / RFU, RNF170 / Fold change vs veh, RNF170 / RFU, ZNF28 / Fold change vs veh, ZNF28 / RFU, RNGTT / Fold change vs veh, RNGTT / RFU, OGT / Fold change vs veh, OGT / RFU, BRD1 / Fold change vs veh, BRD1 / RFU, MARS / Fold change vs veh, MARS / RFU, ZNF655 / Fold change vs veh, ZNF655 / RFU, FAHD1 / Fold change vs veh, FAHD1 / RFU, BDP1 / Fold change vs veh, BDP1 / RFU, LRRCC1 / Fold change vs veh, LRRCC1 / RFU, ARID1A / Fold change vs veh, ARID1A / RFU, ZNF146 / Fold change vs veh, ZNF146 / RFU, ZNF330 / Fold change vs veh, ZNF330 / RFU, GPN3 / Fold change vs veh, GPN3 / RFU, C9orf123 / Fold change vs veh, C9orf123 / RFU, N4BP2L2 / Fold change vs veh, N4BP2L2 / RFU, ARFIP1 / Fold change vs veh, ARFIP1 / RFU, FAM179B / Fold change vs veh, FAM179B / RFU, BCL10 / Fold change vs veh, BCL10 / RFU, UHRF1BP1L / Fold change vs veh, UHRF1BP1L / RFU, BET1 / Fold change vs veh, BET1 / RFU, CNOT2 / Fold change vs veh, CNOT2 / RFU, ZNF268 / Fold change vs veh, ZNF268 / Fold change vs veh, ZNF507 / RFU, DGCR2 / Fold change vs veh, DGCR2 / RFU, WDSUB1 / Fold change vs veh, WDSUB1 / Fold change vs veh, HSP90B1 /// MIR3652 / RFU, ADSS / Fold change vs veh, ADSS / RFU, GK / Fold change vs veh, GK / RFU, ZNF148 / Fold change vs veh, ZNF148 / RFU, TAF9 / Fold change vs veh, TAF9 / RFU, SLC1A5 / Fold change vs veh, SLC1A5 / RFU, SLMO2 / Fold change vs veh, SLMO2 / RFU, ABCC4 / Fold change vs veh, ABCC4 / RFU, LOC101060439 /// RAP1B / Fold change vs veh, LOC101060439 /// RAP1B / RFU, RFX7 / Fold change vs veh, RFX7 / RFU, GTPBP10 / Fold change vs veh, GTPBP10 / RFU, CNEP1R1 / Fold change vs veh, CNEP1R1 / RFU, BIVM-ERCC5 /// ERCC5 / Fold change vs veh, BIVM-ERCC5 /// ERCC5 / RFU, ILF3 / Fold change vs veh, ILF3 / RFU 11762660_at / Fold change /veh 11762660_at / RFU VCAN (11757783_s_at) / Fold change /veh VCAN (11757783_s_at) / RFU DDX43 (11728927_at) / Fold change /veh DDX43 (11728927_at) / RFU KRT8 (11758188_x_at) / Fold change /veh KRT8 (11758188_x_at) / RFU NKD1 (11759106_at) / Fold change /veh NKD1 (11759106_at) / RFU SRD5A1 (11742802_a_at) / Fold change /veh SRD5A1 (11742802_a_at) / RFU TPSAB1 /// TPSB2 (11721975_s_at) / Fold change /veh TPSAB1 /// TPSB2 (11721975_s_at) / RFU GSTM3 (11746129_a_at) / Fold change /veh GSTM3 (11746129_a_at) / RFU IL23R (11737362_x_at) / Fold change /veh IL23R (11737362_x_at) / RFU TMEM51 (11727254_a_at) / Fold change /veh TMEM51 (11727254_a_at) / RFU PIWIL2 (11732686_x_at) / Fold change /veh PIWIL2 (11732686_x_at) / RFU ORM1 (11744905_x_at) / Fold change /veh ORM1 (11744905_x_at) / RFU CCDC152 (11743942_at) / Fold change /veh CCDC152 (11743942_at) / RFU ECM1 (11717891_a_at) / Fold change /veh ECM1 (11717891_a_at) / RFU IL23R (11748794_a_at) / Fold change /veh IL23R (11748794_a_at) / RFU TNFAIP8L3 (11732012_x_at) / Fold change /veh TNFAIP8L3 (11732012_x_at) / RFU MBOAT4 (11741988_at) / Fold change /veh MBOAT4 (11741988_at) / RFU 11764193_at / Fold change /veh 11764193_at / RFU TMEM53 (11763286_at) / Fold change /veh TMEM53 (11763286_at) / RFU MAGEB2 (11727129_at) / Fold change /veh MAGEB2 (11727129_at) / RFU TMEM200A (11744735_a_at) / Fold change /veh TMEM200A (11744735_a_at) / RFU CCDC152 (11751479_a_at) / Fold change /veh CCDC152 (11751479_a_at) / RFU FAM211A (11726209_a_at) / Fold change /veh FAM211A (11726209_a_at) / RFU RGS16 (11746705_a_at) / Fold change /veh RGS16 (11746705_a_at) / RFU VCAN (11755009_s_at) / Fold change /veh VCAN (11755009_s_at) / RFU RHOB (11743442_s_at) / Fold change /veh RHOB (11743442_s_at) / RFU RGS16 (11720943_a_at) / Fold change /veh RGS16 (11720943_a_at) / RFU RGS16 (11720944_at) / Fold change /veh RGS16 (11720944_at) / RFU, VPS4B / Fold change vs veh, VPS4B / RFU, CREB1 / Fold change vs veh, CREB1 / RFU, DNAJC13 / Fold change vs veh, DNAJC13 / RFU, GNAQ / Fold change vs veh, GNAQ / RFU, CDK5R1 / Fold change vs veh, CDK5R1 / RFU, ZRANB3 / Fold change vs veh, ZRANB3 / RFU, CUL4A / Fold change vs veh, CUL4A / RFU, CCNY / Fold change vs veh, CCNY / RFU, UFL1 / Fold change vs veh, UFL1 / RFU, COG3 / Fold change vs veh, COG3 / RFU, DIAPH2 / Fold change vs veh, DIAPH2 / RFU, SKA2 / Fold change vs veh, SKA2 / RFU, AFF3 / Fold change vs veh, AFF3 / RFU, LMF1 / Fold change vs veh, LMF1 / RFU, IPO11 / Fold change vs veh, IPO11 / RFU, DFFB / Fold change vs veh, DFFB / RFU, FOXP1 / Fold change vs veh, FOXP1 / RFU, CARD8 / Fold change vs veh, CARD8 / RFU, STRN3 / Fold change vs veh, STRN3 / RFU, ADK / Fold change vs veh, ADK / RFU, RASSF2 / Fold change vs veh, RASSF2 / RFU, WIPF1 / Fold change vs veh, WIPF1 / RFU, LARP1B / Fold change vs veh, LARP1B / RFU, RASA1 / Fold change vs veh, RASA1 / RFU, RB1 / Fold change vs veh, RB1 / RFU, PPFIA1 / Fold change vs veh, PPFIA1 / RFU, MAT2A / Fold change vs veh, MAT2A / RFU, CCT5 / Fold change vs veh, CCT5 / RFU, WDR92 / Fold change vs veh, WDR92 / RFU, CUX1 / Fold change vs veh, CUX1 / RFU, TTC7A / Fold change vs veh, TTC7A / RFU, TMEM135 / Fold change vs veh, TMEM135 / RFU, DEPTOR / Fold change vs veh, DEPTOR / RFU, CPM / Fold change vs veh, CPM / RFU, DNAJB6 / Fold change vs veh, DNAJB6 / RFU, CACNA2D3 / Fold change vs veh, CACNA2D3 / RFU, DTX4 / Fold change vs veh, DTX4 / RFU, TFCP2 / Fold change vs veh, TFCP2 / RFU, GMCL1 /// GMCL1P1 / Fold change vs veh, GMCL1 /// GMCL1P1 / RFU, AEBP2 / Fold change vs veh, AEBP2 / RFU, SNHG1 /// SNORD22 /// SNORD25 /// SNORD26 /// SNORD27 /// SNORD28 /// SNORD29 /// SNORD31 / Fold change vs veh, SNHG1 /// SNORD22 /// SNORD25 /// SNORD26 /// SNORD27 /// SNORD28 /// SNORD29 /// SNORD31 / Fold change (Aza/veh), C12orf56 (ProbeSet 11735607_a_at) / Fold change (ACY-1035/veh), C12orf56 (ProbeSet 11735607_a_at) / Fold change (Aza/veh), FGFR1OP (ProbeSet 11751329_s_at) / Fold change (ACY-1035/veh), FGFR1OP (ProbeSet 11751329_s_at) / Fold change (Aza/veh), VPS36 (ProbeSet 11739960_a_at) / Fold change (ACY-1035/veh), VPS36 (ProbeSet 11739960_a_at) / RFU SYPL1 (11715823_x_at) / Fold change /veh SYPL1 (11715823_x_at) / RFU IGFBP7 (11715501_s_at) / Fold change /veh IGFBP7 (11715501_s_at) / RFU REEP3 (11722064_at) / Fold change /veh REEP3 (11722064_at) / RFU IGLL1 (11728026_x_at) / Fold change /veh IGLL1 (11728026_x_at): dose or concentration left out as unconfirmed
Settings: ProbeSet 11719493_s_at; LIST B

SMILES: Nc1ncn([C@@H]2O[C@H](CO)[C@@H](O)[C@H]2O)c(=O)n1 [azacitidine]
- Fold change vs veh, TAF9: 1.00
